According to patent US10821142B2, “Cancer treatment and diagnosis” (priority 2015, dated 2020):

Experiments:
[1] = system: STING-dependent genes in murine embryonic fibroblasts; assay: Gene array and qPCR of WT and SKO MEFs treated with AOM or DMH; format: cell-based, mouse; details: AOM 0.14 mM for 8 hours
Method: (§1) FIGS. 1A-1E show activation of STING-dependent genes by azoxymethane (AOM) (FIG. 1A) Gene array analysis of Wild type (WT) and STING deficient (SKO) mouse embryonic fibroblasts (MEFs) treated with AOM at 0.14 mM for 8 hours (Left) and 1,2-dimethylhydrazine (DMH) at 1 mM for 8 hours (Right). Highest variable genes are shown. Rows represent individual genes; columns represent individual samples. Grayscale indicates transcript levels below, equal to, or above the mean. Scale represents the intensity of gene expression (log 2 scale ranges between −2.4 and 2.4). (FIG. 1B) qPCR analysis of Cxcl10 and Ifit3 in MEFs treated with AOM and DMH same as FIG. 1A. (FIG. 1C) qPCR analysis of Cxcl10 in Human epithelial cell (FHC) treated with AOM and DMH at 1 mM for 24 hours. (FIG. 1D) FHC cells were transfected with STING or control siRNA for 72 hours followed by AOM and DMH treatment same as FIG. 1C, and were then subjected to Cxcl0 mRNA expression (Left). STING expression level after siRNA treatment was determined by qPCR (Right). […] (FIG. 1E) STING Immunohistochemistry staining of the colon tissue from WT and SKO mice (Left) and Human. All images were shown at original magnification, 200×.
Towards these objectives, the AOM/DSS model, as described above, was utilized and analyzed the effects of AOM and precursor DMH upon STING signaling. Principally, wild type (WT) or STING-deficient (SKO) murine embryonic fibroblasts (MEF) were treated in vitro with DMH or metabolite AOM for 8 hours and microarray analysis performed to analyze the consequences to gene expression. […] The observed STING-dependent gene expression was confirmed following RT-PCR analysis of select mRNA such as Cxcl10 and IFIT3 (FIG. 1B). […] Thus, the DNA damaging agent DMH/AOM can invoke STING-dependent signaling.
Total RNA was isolated from cells or tissues with RNeasy Mini kit (74104, Qiagen, Valencia, Calif.). RNA quality was analyzed by Bionalyzer RNA 6000 Nano (Agilent Technologies, Santa Clara Calif.). […]

[2] = system: STING-dependent genes in FHC cells; assay: qPCR of Cxcl10 in human colon epithelial cells (FHC) treated with AOM; format: cell-based; details: FHC treated with RNAi to STING
Method: as §1
Towards these objectives, the AOM/DSS model, as described above, was utilized and analyzed the effects of AOM and precursor DMH upon STING signaling. […]

IRF3/NF-κB translocation = assay: Immunofluorescence of IRF3/NF-κB translocation in FHC treated with DMH/AOM; format: cell-based, human; details: 3 mM for 48 hours
Method: FIGS. 8A-8C show fluorescence microscopy analysis (related to FIG. 1) of DAPI staining in WT and SKO MEFs treated with 3 mM of AOM of 3 mM of DMH (FIG. 8A) and anti-dsDNA staining and the ration of cytoplasm to nucleus (FIG. 8B) in Human normal colon epithelial cells (FHC) treated with 3 mM of AOM or 3 mM of DMH for 48 hours. (FIG. 8C) Immunofluorescence microscopy analysis of FHC treated with AOM and DMH sane as FIG. 8A for 48 hours using p65 or IRF3 antibody. Images shown at original magnification, 160×.
To start determining the mechanisms underlining the cause of DMH/AOM-induced STING activity, MEF or FHC cells were treated with these drugs and observed by two different approaches, DAPI staining and immunofluorescence (IF) using anti-dsDNA antibody, the leakage of DNA into the cytosol (FIGS. 8A and 8B). Cytosolic DNA activates STING and stimulates STING/TBK1 trafficking via autophagy to endosomal regions harboring the transcription factors IRF3 and NF-κB, which triggers cytokine production. […]
Cells were cultured and treated in their appropriate media on Lab-Tek II chamber slides. […] Immunostaining was performed with rabbit-anti-STING polyclonal followed by fluorescence conjugated secondary antibodies (FITC-goat-anti-rabbit) (Invitrogen). […]

type I IFN production = assay: IFNB induction (qPCR) in normal and colon cancer cells treated with AOM or DMH; format: cell-based, human; details: 15 mM for 20 hours
Method: FIG. 22. Normal and colon cancer cells were treated with AOM or DMH at 15 mM for 20 hours. IFNB induction was analyzed by qPCR. STING, IRF3 and NF-kB translocation was examined: +, translocation; −, no translocation.
The question arises as to why the STING-signaling pathway may be inhibited in colon adenocarcinoma. Recently, it was shown that STING-deficient cells and mice are sensitive to AOM-induced DNA damage. In this situation, the STING pathway may play a role in the DNA-damage response pathway, to induce the production of cytokines which facilitate tissue repair or damaged cell removal (Chatzinikolaou et al., 2014; Kidane et al., 2014; Lord and Ashworth, 2012). As such, innate immune induction of CA cells in response to DNA damaging agents was examined. […] Thus, the inhibition of the STING pathway may enable DNA damaged cells, harboring mutations, to escape part of the DNA damage response and the immune surveillance machinery to progress into a tumorigenic state.

colon = details: mice; single injection of AOM followed by DSS via drinking water; cited from earlier work

## CN=[N+](C)[O-] [AOM, Azoxymethane]
[1]; MEFs lacking STING (SKO)
  mRNA production of innate immune related genes: marked decrease in the production of the same genes
[1]; WT MEFs
  mRNA production of innate immune related genes: activated mRNA production of a wide array of innate immune related genes
[2]
  production of Cxcl10: similarly reduced
IRF3/NF-κB translocation
  translocation of IRF3/NF-κB: could instigate the translocation of IRF3/NF-κB
Type I IFN production; CA cells with defective STING activated IRF3 or NF-kB activity
  production of type I IFN: unable to generate type I IFN
Type I IFN production; normal colon epithelial (CCD841) and LS123
  production of type I IFN: able to induce the production of type I IFN
colon
  colon cancer induced: ~100%
